Article PMC6136660 (Steroids, 2018)
Like-named read-outs stand apart in the source and are kept apart here.

How the values were obtained:
Format in all cases: in vivo, human
[1] = Phase 1 multiple ascending dose (MAD) pharmacokinetics, 14 days once daily; conditions: for CL/F: human, plasma, oral, read-out: CL/F, range of geometric mean values
Procedure: The MAD part of the study was initiated after a review of safety and PK data from SAD cohorts 1 to 6. In the MAD part, 4 cohorts containing 8 subjects each were randomized to receive vamorolone or placebo, in a 3:1 ratio, once daily (QD) for 14 days. The duration of dosing in the MAD part was determined based on the PK data from the SAD part. In each cohort, 3 sentinel subjects were administered vamorolone or placebo, in a 2:1 ratio.
The planned dose levels for the MAD part were 1.0 mg/kg (Cohort 1), 3.0 mg/kg (Cohort 2), 9.0 mg/kg (Cohort 3), and 20.0 mg/kg (Cohort 4) or until the maximum tolerated dose (MTD) was identified.
Daily doses of vamorolone (1.0, 3.0, 9.0 and 20.0 mg/kg/day) were given in the morning in a fasted state, daily for 14 days, and PK determined on day 1 (after single dose) and day 14 (after the 14th dose). Consistent with the SAD, mean plasma vamorolone concentrations and dose-related PK parameters increased in a dose related manner (Fig. 3). Log-log plots of the individual subject Cmax and AUC (inf) were linear. Although the slopes ranged from 0.827 to 0.898, the deviation from 1.0 may be a consequence of between-subject variability and not indicative of a less than dose-proportional increase in exposure.

[2] = tested on: blood glucose (insulin resistance biomarker); experiment: Blood glucose, SAD; conditions: mean±SEM
Procedure: All biomarkers were analyzed using standard immunoassays by PRA.
Glucocorticoids were originally named as such due to their potent and acute effects on glucose metabolism, where liver and muscle pathways for insulin signaling are rapidly and profoundly affected, creating a state of insulin resistance. […] Fasting insulin and glucose levels were assessed in all dose groups in the vamorolone Phase 1 SAD and MAD.

[3] = Clinical safety (treatment-emergent adverse events), SAD
Procedure: In the SAD part of the study, 7 cohorts were to be enrolled. Eight subjects were assigned to each of Cohorts 1 to 5 and 7 and received a single oral dose of vamorolone (planned as 0.1 mg/kg, 0.3 mg/kg, 1.0 mg/kg, 3.0 mg/kg, 8.0 mg/kg, and 20.0 mg/kg, respectively) or placebo under fasted conditions. Six subjects were assigned to Cohort 6 and were administered a single oral dose of 8.0 mg/kg vamorolone within 30 min of beginning a high fat/high calorie meal.
Subjects in Cohorts 1 through 5 and 7 were randomized to receive vamorolone or placebo in a 3:1 ratio (6 subjects received vamorolone, and 2 subjects received placebo) sequentially. In Cohort 1, 3 sentinel subjects were administered vamorolone or placebo in a 2:1 ratio. Following a review of sentinel safety and tolerability data (including reported adverse events [AEs], clinical laboratory tests, vital signs, and electrocardiograms [ECGs]), the remaining 5 subjects were randomized to receive vamorolone or placebo in a 4:1 ratio and dosed no earlier than 48 h after sentinel dosing. In Cohorts 2 to 5, and 7, subjects were administered vamorolone or placebo in a 3:1 ratio. Once Cohort 5 was completed and safety data had been reviewed, subjects in Cohort 6 were administered a single oral dose of 8.0 mg/kg vamorolone within 30 min of beginning a standard high fat/high calorie meal.
After completion of all scheduled safety follow-up visits for a given cohort, a Safety Review Committee (SRC), comprised of the Principal Investigator (PI), the Sponsor’s Medical Monitor, and the Sponsor’s pharmacokineticist, reviewed all available PK and safety data (AEs, physical examination findings, ECGs, vital signs, and clinical laboratory tests) in a blinded manner for the completed cohort prior to making a decision to escalate to the next higher dose level.
In the SAD part, overall, six subjects (11%) administered vamorolone experienced a total of 10 treatment-emergent adverse events (TEAEs); no subject in the placebo group experienced any TEAEs. There was no dose-related trend in the incidence or severity of TEAEs; the dose group with the highest number of subjects reporting TEAEs was the 0.1 mg/kg dose group (2 subjects, 33%), and the highest number of TEAEs (3 events) was reported by 1 subject in the 1.0 mg/kg vamorolone dose group. In the 0.3 and 3.0 mg/kg vamorolone fasted and the 8.0 mg/kg fed dose groups, 1 subject per group (17%) experienced TEAEs, and no subjects in the 8.0 mg/kg and 20 mg/kg, fasted, dose groups experienced any TEAEs. The most common TEAEs were dizziness and headache, each reported by 2 subjects overall (4%); all other TEAEs were reported by only 1 subject (2%) and included ear pain, nausea, non-cardiac chest pain, and blood bilirubin increased. Three subjects (6%) had TEAEs that were considered possibly related to treatment. Possibly related TEAEs included nausea (1 subject, 2%), dizziness (2 subjects, 4%), and headache (2 subjects, 4%). […] All other TEAEs were mild in severity.

In the case of C[C@@H]1C[C@H]2[C@@H]3CCC4=CC(=O)C=C[C@]4(C)C3=CC[C@]2(C)[C@@]1(O)C(=O)CO [vamorolone], the “drug accumulation between daily doses” value ([1]; Day 1 vs Day 14, once daily 14 days) is reported as “essentially no drug accumulation between doses”, the CL/F ([1]; MAD Day 1, across 1-20 mg/kg/day) is reported as 23.7 to 33.7 mL/min/kg and the CL/F ([1]; MAD Day 14, across 1-20 mg/kg/day) is reported as 21 to 35.8 mL/min/kg. It also gave a Blood glucose ([2]; SAD 0.1 mg/kg, 24 Hours Post Dose) of 95 ± 4 mg/dL, a Blood glucose ([2]; SAD 0.1 mg/kg, 48 Hours Post Dose) of 95 ± 3 mg/dL and a Blood glucose ([2]; SAD 0.1 mg/kg, 72 Hours Post Dose) of 94 ± 4 mg/dL. For the same compound, the Blood glucose ([2]; SAD 0.1 mg/kg, <2 hours predose, baseline) was 95 ± 3 mg/dL, the Blood glucose ([2]; SAD 0.1 mg/kg, Day -1, baseline) was 99 ± 3 mg/dL and the Blood glucose ([2]; SAD 0.1 mg/kg, Follow-up Visit) was 98 ± 4 mg/dL. It also gave a Blood glucose ([2]; SAD 0.1 mg/kg, Screening, baseline) of 94 ± 4 mg/dL, a Blood glucose ([2]; SAD 0.3 mg/kg, 24 Hours Post Dose) of 91 ± 2 mg/dL and a Blood glucose ([2]; SAD 0.3 mg/kg, 48 Hours Post Dose) of 90 ± 2 mg/dL. It also gave a Blood glucose ([2]; SAD 0.3 mg/kg, 72 Hours Post Dose) of 91 ± 1 mg/dL, a Blood glucose ([2]; SAD 0.3 mg/kg, <2 hours predose, baseline) of 93 ± 2 mg/dL and a Blood glucose ([2]; SAD 0.3 mg/kg, Day -1, baseline) of 91 ± 2 mg/dL. The Blood glucose ([2]; SAD 0.3 mg/kg, Follow-up Visit) was 88 ± 4 mg/dL, the Blood glucose ([2]; SAD 0.3 mg/kg, Screening, baseline) was 93 ± 2 mg/dL and the Blood glucose ([2]; SAD 1.0 mg/kg, 24 Hours Post Dose) was 86 ± 3 mg/dL. For the same compound, the Blood glucose ([2]; SAD 1.0 mg/kg, 48 Hours Post Dose) was 88 ± 3 mg/dL, the Blood glucose ([2]; SAD 1.0 mg/kg, 72 Hours Post Dose) was 86 ± 3 mg/dL and the Blood glucose ([2]; SAD 1.0 mg/kg, <2 hours predose, baseline) was 93 ± 3 mg/dL. For the same compound, the Blood glucose ([2]; SAD 1.0 mg/kg, Day -1, baseline) was 92 ± 3 mg/dL, the Blood glucose ([2]; SAD 1.0 mg/kg, Follow-up Visit) was 93 ± 2 mg/dL and the Blood glucose ([2]; SAD 1.0 mg/kg, Screening, baseline) was 92 ± 3 mg/dL. The Blood glucose ([2]; SAD 3.0 mg/kg, 24 Hours Post Dose) was 93 ± 3 mg/dL, the Blood glucose ([2]; SAD 3.0 mg/kg, 48 Hours Post Dose) was 89 ± 4 mg/dL and the Blood glucose ([2]; SAD 3.0 mg/kg, 72 Hours Post Dose) was 88 ± 3 mg/dL. The Blood glucose ([2]; SAD 3.0 mg/kg, <2 hours predose, baseline) was 92 ± 4 mg/dL, the Blood glucose ([2]; SAD 3.0 mg/kg, Day -1, baseline) was 89 ± 3 mg/dL and the Blood glucose ([2]; SAD 3.0 mg/kg, Follow-up Visit) was 91 ± 5 mg/dL. The Blood glucose ([2]; SAD 3.0 mg/kg, Screening, baseline) was 96 ± 5 mg/dL, the Blood glucose ([2]; SAD 8.0 mg/kg, 24 Hours Post Dose) was 91 ± 4 mg/dL and the Blood glucose ([2]; SAD 8.0 mg/kg, 48 Hours Post Dose) was 87 ± 3 mg/dL. For the same compound, the Blood glucose ([2]; SAD 8.0 mg/kg, 72 Hours Post Dose) was 89 ± 4 mg/dL, the Blood glucose ([2]; SAD 8.0 mg/kg, <2 hours predose, baseline) was 86 ± 3 mg/dL and the Blood glucose ([2]; SAD 8.0 mg/kg, Day -1, baseline) was 90 ± 5 mg/dL. For the same compound, the Blood glucose ([2]; SAD 8.0 mg/kg, Follow-up Visit) was 94 ± 4 mg/dL, the Blood glucose ([2]; SAD 8.0 mg/kg, Screening, baseline) was 89 ± 4 mg/dL and the Blood glucose ([2]; SAD 20.0 mg/kg, 24 Hours Post Dose) was 91 ± 2 mg/dL. For the same compound, the Blood glucose ([2]; SAD 20.0 mg/kg, 48 Hours Post Dose) was 86 ± 2 mg/dL, the Blood glucose ([2]; SAD 20.0 mg/kg, 72 Hours Post Dose) was 88 ± 2 mg/dL and the Blood glucose ([2]; SAD 20.0 mg/kg, <2 hours predose, baseline) was 97 ± 4 mg/dL. It also gave a Blood glucose ([2]; SAD 20.0 mg/kg, Day -1, baseline) of 94 ± 3 mg/dL, a Blood glucose ([2]; SAD 20.0 mg/kg, Follow-up Visit) of 89 ± 3 mg/dL and a Blood glucose ([2]; SAD 20.0 mg/kg, Screening, baseline) of 93 ± 3 mg/dL. The “subjects reporting TEAEs” value ([3]; SAD 0.1 mg/kg (2 subjects)) was 33%, the “subjects experiencing TEAEs” value ([3]; SAD 0.3 mg/kg fasted (1 subject)) was 17% and the “number of TEAEs” value ([3]; SAD 1.0 mg/kg, reported by 1 subject) was 3 events. For the same compound, the “subjects experiencing TEAEs” value ([3]; SAD 3.0 mg/kg fasted (1 subject)) was 17%, the “subjects experiencing TEAEs” value ([3]; SAD 8.0 mg/kg fasted) was “no subjects” and the “subjects experiencing TEAEs” value ([3]; SAD 8.0 mg/kg fed (1 subject)) was 17%. The “subjects experiencing TEAEs” value ([3]; SAD 20 mg/kg fasted) was “no subjects” and the “subjects experiencing TEAEs, overall” value ([3]; SAD, all dose groups (six subjects, 10 TEAEs)) was 11%.
